Reference: ChEMBL document CHEMBL5506049, “Discovery of Novel Small-Molecule-Based Potential PD-L1/EGFR Dual Inhibitors with High Druggability for Glioblastoma Immunotherapy” (J Med Chem, 2024)

Columns and labels:
U-87 MG [1] = test: Induction of cell cycle arrest in human U-87 MG cells assessed as accumulation of cells at G0/G1 phase at 1 uM incubated for 48 hrs by flow cytometry (reference value: 60.51%); type: functional, U-87MG ATCC
U-87 MG [2] = test: Induction of cell cycle arrest in human U-87 MG cells assessed as accumulation of cells at G0/G1 phase at 2 uM incubated for 48 hrs by flow cytometry (reference value: 60.51%); type: functional, U-87MG ATCC
U-87 MG [3] = test: Induction of cell cycle arrest in human U-87 MG cells assessed as decrease in accumulation of cells at S phase at 0.5 uM incubated for 48 hrs by flow cytometry (reference value: 30.36%); type: functional, U-87MG ATCC; design: scale not given: the % may be the effect or the level left
U-87 MG [4] = test: Induction of cell cycle arrest in human U-87 MG cells assessed as decrease in accumulation of cells at S phase at 1 uM incubated for 48 hrs by flow cytometry (reference value: 30.36%); type: functional, U-87MG ATCC; design: scale not given: the % may be the effect or the level left
[5] = biological target: Programmed cell death 1 ligand 1 (Mus musculus) (UniProt Q9EP73); test: (§1) Binding affinity to recombinant mouse His-tagged PD-L1 expressed in HEK293 cells by SPR analysis
Programmed cell death 1 ligand 1 (Mus musculus), sequence (Q9EP73 whole entry): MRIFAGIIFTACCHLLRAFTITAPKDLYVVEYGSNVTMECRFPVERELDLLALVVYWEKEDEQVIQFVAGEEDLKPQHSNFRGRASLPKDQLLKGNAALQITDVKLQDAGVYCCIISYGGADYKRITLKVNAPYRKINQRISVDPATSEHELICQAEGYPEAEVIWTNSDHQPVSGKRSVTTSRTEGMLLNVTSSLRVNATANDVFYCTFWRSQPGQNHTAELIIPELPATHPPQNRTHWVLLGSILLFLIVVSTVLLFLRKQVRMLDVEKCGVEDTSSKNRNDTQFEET

[6] = biological target: Programmed cell death 1 ligand 1 (Mus musculus, UniProt Q9EP73); test: as §1
Programmed cell death 1 ligand 1, sequence (Q9EP73 whole entry): as above

U-87 MG [7] = test: Cytotoxicity activity against human U-87 MG cells assessed as cell viability at 0.5 uM incubated for 48 hrs by CCK-8 assay relative to control; type: functional, U-87MG ATCC; details: read-out: Activity
U-87 MG [8] = test: In vitro immunoregulatory effect in IFN-gamma stimulated human U-87 MG cells co-cultured with PHA-P stimulated with human Jurkat T cell assessed as cytotoxicity by measuring cell viability at 0.5 uM incubated for 48 hrs by CCK-8 assay relative to control; type: functional, U-87MG ATCC
[9] = AUC (0 to t) in Sprague-Dawley rat at 4 mg/kg, iv measured upto 72 hrs by (LC-MS)/MS analysis; type: ADME, organism-based; details: in vivo
[10] = MRT (0 to t) in Sprague-Dawley rat at 4 mg/kg, iv measured upto 72 hrs by (LC-MS)/MS analysis; type: ADME, organism-based; details: in vivo
[11] = MRT (0 to infinity) in Sprague-Dawley rat at 4 mg/kg, iv measured upto 72 hrs by (LC-MS)/MS analysis; type: ADME, organism-based; details: in vivo
[12] = Half life in Sprague-Dawley rat at 4 mg/kg, iv measured upto 72 hrs by (LC-MS)/MS analysis; type: ADME, organism-based; details: in vivo
[13] = Tmax in Sprague-Dawley rat at 4 mg/kg, iv measured upto 72 hrs by (LC-MS)/MS analysis; type: ADME, organism-based; details: in vivo
[14] = Clearance in Sprague-Dawley rat at 4 mg/kg, iv measured upto 72 hrs by (LC-MS)/MS analysis; type: ADME, organism-based; details: in vivo
[15] = Cmax in Sprague-Dawley rat at 4 mg/kg, iv measured upto 72 hrs by (LC-MS)/MS analysis; type: ADME, organism-based; details: in vivo
[16] = AUC (0 to infinity) in Sprague-Dawley rat at 20 mg/kg, po measured upto 72 hrs by (LC-MS)/MS analysis; type: ADME, organism-based; details: in vivo
[17] = MRT (0 to t) in Sprague-Dawley rat at 20 mg/kg, po measured upto 72 hrs by (LC-MS)/MS analysis; type: ADME, organism-based; details: in vivo
[18] = MRT (0 to infinity) in Sprague-Dawley rat at 20 mg/kg, po measured upto 72 hrs by (LC-MS)/MS analysis; type: ADME, organism-based; details: in vivo
[19] = Tmax in Sprague-Dawley rat at 20 mg/kg, po measured upto 72 hrs by (LC-MS)/MS analysis; type: ADME, organism-based; details: in vivo
[20] = Oral bioavailability in Sprague-Dawley rat at 20 mg/kg measured upto 72 hrs by (LC-MS)/MS analysis; type: ADME, organism-based; details: in vivo
[21] = Ratio of brain to plasma concentration in Sprague-Dawley rat at 5 mg/kg, iv measured after 20 mins; type: ADME, organism-based
[22] = Toxicity in C57BL/6 mouse xenografted with […] GL261 cells assessed as body weight loss at 50 to 100 mg/kg, IG treated for 21 days; type: organism-based; details: in vivo, po, 504 h, dose 50-100 mg/kg, time 21 day
GL261 = test: In vivo antitumor activity against […] GL261 cells xenografted in intragastrically dosed C57BL/6 mouse assessed as decrease in tumor size treated for 21 days relative to control; type: functional, organism-based; details: route ig, time 21.0 day
[23] = In vivo antitumor activity against […] GL261 cells xenografted in C57BL/6 mouse assessed as decrease in tumor weight at 100 mg/kg, IG treated for 21 days relative to control; type: functional; design: scale not given: the % may be the effect or the level left; details: time 21 day
[24] = In vivo antitumor activity against […] GL261 cells xenografted in C57BL/6 mouse assessed as decrease in tumor volume at 100 mg/kg, IG treated for 21 days relative to control; type: functional; design: scale not given: the % may be the effect or the level left; details: time 21 day
[25] = In vivo antitumor activity against […] GL261 cells xenografted in C57BL/6 mouse assessed as tumor growth inhibition (tumor weight decrease) at 50 mg/kg, IG treated for 21 days relative to control; type: functional; details: GL261, po, 504 h, time 21 day, read-out: TGI
[26] = In vivo antitumor activity against […] GL261 cells xenografted in C57BL/6 mouse assessed as tumor growth inhibition (tumor volume decrease) at 50 mg/kg, IG treated for 21 days relative to control; type: functional; details: GL261, po, 504 h, time 21 day, read-out: TGI
[27] = In vivo antitumor activity against […] GL261 cells xenografted in C57BL/6 mouse assessed as decrease in EGFR phosphorylation in tumor tissue at 100 mg/kg, IG treated for 21 days relative to control; type: functional; design: scale not given: the % may be the effect or the level left; details: time 21 day
[28] = In vivo antitumor activity against […] GL261 cells xenografted in C57BL/6 mouse assessed as decrease in PD-L1 expression in tumor tissue at 100 mg/kg, IG treated for 21 days relative to control; type: functional; design: scale not given: the % may be the effect or the level left; details: time 21 day
[29] = Toxicity in C57BL/6 mouse xenografted with […] GL261 cells assessed as cell necrosis in heart at 100 mg/kg, IG treated for 21 days by hematoxylin-eosin staining based microscopy assay; type: organism-based; details: in vivo, po, 504 h, time 21 day
[30] = Toxicity in C57BL/6 mouse xenografted with […] GL261 cells assessed as cell necrosis in spleen at 100 mg/kg, IG treated for 21 days by hematoxylin-eosin staining based microscopy assay; type: organism-based; details: in vivo, po, 504 h, time 21 day
[31] = Toxicity in C57BL/6 mouse xenografted with […] GL261 cells assessed as cell necrosis in lung at 100 mg/kg, IG treated for 21 days by hematoxylin-eosin staining based microscopy assay; type: organism-based; details: in vivo, po, 504 h, time 21 day
Glioblastoma cell line = test: Antitumor immunity against glioblastoma bearing C57BL/6 mouse model assessed as tumor infiltrating lymphocytes by measuring increase in CD3+CD8+T cells at 100 mg/kg, IG (reference value: 3.44%); type: functional
U-87 MG [32] = test: In vitro immunoregulatory effect in IFN-gamma stimulated human U-87 MG cells co-cultured with PHA-P stimulated with human Jurkat T cell assessed as cytotoxicity by measuring cell viability incubated for 48 hrs by CCK-8 assay relative to control; type: functional, cell-based; details: U-87MG ATCC, dose 0.0625-0.5 µM
U-87 MG [33] = test: cells; details: Homo sapiens, 72 h
Description: Antiproliferative activity against human U-87 MG cells incubated for 72 hrs by MTT assay

cells = details: Homo sapiens, U87MG Human EGFR vIII, 72 h
Description: Antiproliferative activity against human U87vIII cells expressing EGFRvIII incubated for 72 hrs by MTT assay

## COc1cc2ncnc(Nc3cccc(Cl)c3F)c2cc1OCCCCNCc1c(OC)cc(OCc2cccc(-c3ccccc3)c2C)cc1OC
U-87 MG [1]
  Activity: 69.48%
U-87 MG [2]
  Activity: 73.98%
U-87 MG [3]
  Activity: 28.36%
U-87 MG [4]
  Activity: 22.89%
[5]
  Activity: Dose-Dependent Effect
[6]
  Kd: 520 nM
U-87 MG [7]
  viability at 0.5 µM: 96.9%
U-87 MG [8]
  Activity: 73.8%
[9]
  AUC(0-t) at 72 h: 2830 ng·h/mL
[10]
  MRT last at 72 h: 12.7 h
[11]
  MRT inf: 12.5 h
[12]
  half-life: 408 min
[13]
  Tmax: 2.4 min
[14]
  clearance: 25 mL/min/kg
[15]
  Cmax: 326 ng/mL
[16]
  AUC(0-inf): 3240 ng·h/mL
[17]
  MRT last at 72 h: 17.5 h
[18]
  MRT inf: 17.2 h
[19]
  Tmax: 3.6 h
[20]
  bioavailability: 22.2%
[21]
  BPR: 10%
[22]
  Activity: Non-Toxic
GL261
  Activity: Dose-Dependent Effect
[23]
  Activity: 92%
[24]
  Activity: 89.7%
[25]
  inhibition in vivo at 50 mg/kg: 61.4%
[26]
  inhibition in vivo at 50 mg/kg: 55.8%
[27]
  Activity: ~50%
[28]
  Activity: ~30%
[29]
  Activity: Non-Toxic
[30]
  Activity: Non-Toxic
[31]
  Activity: Non-Toxic
Glioblastoma cell line
  Activity: 14.6%
U-87 MG [32]
  Activity: Dose-Dependent Effect
U-87 MG [33]
  IC50: 770 nM
cells
  IC50: 280 nM
